The target of assay [1] is T1, Serine/threonine-protein kinase Nek1 (Homo sapiens) (UniProt Q96PY6).
T1 sequence (whole entry): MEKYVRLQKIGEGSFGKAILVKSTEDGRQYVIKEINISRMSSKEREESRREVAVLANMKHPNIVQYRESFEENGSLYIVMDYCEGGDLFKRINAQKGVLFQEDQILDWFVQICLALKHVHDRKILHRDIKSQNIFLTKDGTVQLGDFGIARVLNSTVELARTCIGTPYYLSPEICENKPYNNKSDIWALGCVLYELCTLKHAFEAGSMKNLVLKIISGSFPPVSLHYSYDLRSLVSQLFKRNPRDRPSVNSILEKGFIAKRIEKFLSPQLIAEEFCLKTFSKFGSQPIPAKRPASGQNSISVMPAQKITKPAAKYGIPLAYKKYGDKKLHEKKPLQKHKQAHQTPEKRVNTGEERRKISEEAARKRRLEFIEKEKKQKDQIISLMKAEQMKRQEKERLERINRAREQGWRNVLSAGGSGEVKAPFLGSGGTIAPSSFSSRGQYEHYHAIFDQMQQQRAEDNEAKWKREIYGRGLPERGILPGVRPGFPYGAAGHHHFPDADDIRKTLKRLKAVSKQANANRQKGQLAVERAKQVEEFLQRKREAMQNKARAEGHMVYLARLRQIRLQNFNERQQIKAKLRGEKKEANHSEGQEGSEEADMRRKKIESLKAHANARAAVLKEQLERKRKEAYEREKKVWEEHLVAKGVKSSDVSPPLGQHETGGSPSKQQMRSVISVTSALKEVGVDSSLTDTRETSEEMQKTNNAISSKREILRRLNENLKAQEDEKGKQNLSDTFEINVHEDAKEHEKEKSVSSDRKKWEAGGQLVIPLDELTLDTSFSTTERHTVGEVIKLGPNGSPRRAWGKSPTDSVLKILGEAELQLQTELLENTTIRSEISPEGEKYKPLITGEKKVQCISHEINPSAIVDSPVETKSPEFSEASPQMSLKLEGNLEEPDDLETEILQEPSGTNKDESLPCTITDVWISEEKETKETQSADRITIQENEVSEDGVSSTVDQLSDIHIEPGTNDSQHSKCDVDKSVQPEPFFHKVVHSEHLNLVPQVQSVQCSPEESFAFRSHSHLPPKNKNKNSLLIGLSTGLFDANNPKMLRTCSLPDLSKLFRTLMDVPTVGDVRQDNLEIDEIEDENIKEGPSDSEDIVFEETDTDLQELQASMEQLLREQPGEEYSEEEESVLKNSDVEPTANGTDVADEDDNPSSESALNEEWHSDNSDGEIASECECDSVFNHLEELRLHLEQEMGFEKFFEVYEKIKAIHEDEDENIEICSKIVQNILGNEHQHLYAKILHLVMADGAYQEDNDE
Put plainly: Selectivity interaction (Kinase panel (Z-LYTE Assay)) EUB0001632a NEK1. The note with it: at 10 µM.

For assay [2], the system named is Epidermal growth factor receptor (Homo sapiens), P00533 [UNDEFINED MUTATION]. Put plainly: Selectivity interaction (KinomeScan (DiscoverX)) EUB0001619a EGFR. The conditions noted are these: at 1 µM.
Assay [3] addresses Calcium/calmodulin-dependent protein kinase type II subunit gamma (Homo sapiens) (UniProt Q13555). Put plainly: Selectivity interaction (KinomeScan (DiscoverX)) EUB0001619a CAMK2G. The note with it: at 1 µM.
The target in assay [4] is Calcium/calmodulin-dependent protein kinase type II subunit delta (Homo sapiens) (UniProt Q13557). Put plainly: Selectivity interaction (KinomeScan (DiscoverX)) EUB0000607a CAMK2D. The conditions noted are these: at 10 µM.
Assay [5] concerns the target T2, Tyrosine-protein kinase ABL2 (Homo sapiens, UniProt P42684). Put plainly: Selectivity interaction (ActivX KiNativ screen (kinase selectivity in THP-1 cell lysates)) EUB0000639a ABL2. It is filed as subcellular. The conditions noted are these: lysate, at 5 µM.
The target of assay [6] is Serine/threonine-protein kinase MARK1 (Homo sapiens) (UniProt Q9P0L2). Put plainly: Selectivity interaction (Kinase panel (literature)) EUB0001199aCl MARK1. The conditions noted are these: at 1 µM.
For assay [7], the target named is Receptor tyrosine-protein kinase erbB-4 (Homo sapiens, UniProt Q15303). Put plainly: Selectivity interaction (ProQinase) EUB0000171b ERBB4.
Assay [8] concerns the target Eukaryotic translation initiation factor 2-alpha kinase 1 (Homo sapiens) (UniProt Q9BQI3). Put plainly: Selectivity interaction (Ambit KINOMEscan and KiNATiv profiling in Jurkat cells) EUB0000090b EIF2AK1. It is filed as cell-based. The conditions noted are these: at 1 µM.
Assay [9] addresses T3, Bromodomain-containing protein 1 (Homo sapiens) (UniProt O95696).
T3 sequence (whole entry): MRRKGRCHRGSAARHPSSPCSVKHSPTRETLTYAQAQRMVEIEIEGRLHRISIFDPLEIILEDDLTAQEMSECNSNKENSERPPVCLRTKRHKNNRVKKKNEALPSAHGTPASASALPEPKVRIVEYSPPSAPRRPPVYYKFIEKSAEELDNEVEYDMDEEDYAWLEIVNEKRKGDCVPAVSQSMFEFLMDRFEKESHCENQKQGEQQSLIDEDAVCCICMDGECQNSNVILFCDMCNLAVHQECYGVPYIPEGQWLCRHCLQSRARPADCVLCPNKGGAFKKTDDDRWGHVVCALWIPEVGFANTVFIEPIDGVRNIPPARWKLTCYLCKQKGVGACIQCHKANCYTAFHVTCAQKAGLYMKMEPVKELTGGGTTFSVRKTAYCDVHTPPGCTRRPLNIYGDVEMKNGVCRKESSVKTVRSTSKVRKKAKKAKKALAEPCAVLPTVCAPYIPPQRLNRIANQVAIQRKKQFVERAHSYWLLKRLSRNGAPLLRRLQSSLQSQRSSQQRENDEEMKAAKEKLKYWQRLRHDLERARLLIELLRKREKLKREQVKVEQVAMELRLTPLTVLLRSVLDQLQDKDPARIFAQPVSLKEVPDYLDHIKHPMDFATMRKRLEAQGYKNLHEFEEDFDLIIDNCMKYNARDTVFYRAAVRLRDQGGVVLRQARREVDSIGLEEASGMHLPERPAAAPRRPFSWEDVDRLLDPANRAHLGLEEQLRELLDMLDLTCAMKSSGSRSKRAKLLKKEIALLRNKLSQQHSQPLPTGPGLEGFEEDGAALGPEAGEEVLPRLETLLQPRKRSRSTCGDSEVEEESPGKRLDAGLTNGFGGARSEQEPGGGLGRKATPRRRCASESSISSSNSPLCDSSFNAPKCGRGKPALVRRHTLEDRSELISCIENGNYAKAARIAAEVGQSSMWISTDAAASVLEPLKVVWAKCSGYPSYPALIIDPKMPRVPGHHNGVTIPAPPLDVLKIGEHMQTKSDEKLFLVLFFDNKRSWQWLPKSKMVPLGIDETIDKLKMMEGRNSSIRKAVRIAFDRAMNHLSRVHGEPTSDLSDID
Put plainly: Selectivity interaction (PWWP, WD40, and Tudor domain panel (DSLS measurements, literature)) EUB0000270b BRD1.

Assay [10] addresses T2, Tyrosine-protein kinase ABL2. Put plainly: Selectivity interaction (Millipore kinase profiler) EUB0000124b ABL2. The conditions noted are these: at 10 µM.
Assay [11] concerns the target CDK7/Cyclin H/MNAT1 (Homo sapiens) (UniProt P51946+P50613+P51948). Put plainly: Selectivity interaction (Millipore kinase profiler) EUB0000124b CDK7. Format: protein-complex assay. The conditions noted are these: at 10 µM.

The source of these data is ChEMBL document CHEMBL5465560, “Selectivity Literature for EUbOPEN Chemogenomic Library” (2024).

Sequence of Receptor tyrosine-protein kinase erbB-4 (Q15303 whole entry): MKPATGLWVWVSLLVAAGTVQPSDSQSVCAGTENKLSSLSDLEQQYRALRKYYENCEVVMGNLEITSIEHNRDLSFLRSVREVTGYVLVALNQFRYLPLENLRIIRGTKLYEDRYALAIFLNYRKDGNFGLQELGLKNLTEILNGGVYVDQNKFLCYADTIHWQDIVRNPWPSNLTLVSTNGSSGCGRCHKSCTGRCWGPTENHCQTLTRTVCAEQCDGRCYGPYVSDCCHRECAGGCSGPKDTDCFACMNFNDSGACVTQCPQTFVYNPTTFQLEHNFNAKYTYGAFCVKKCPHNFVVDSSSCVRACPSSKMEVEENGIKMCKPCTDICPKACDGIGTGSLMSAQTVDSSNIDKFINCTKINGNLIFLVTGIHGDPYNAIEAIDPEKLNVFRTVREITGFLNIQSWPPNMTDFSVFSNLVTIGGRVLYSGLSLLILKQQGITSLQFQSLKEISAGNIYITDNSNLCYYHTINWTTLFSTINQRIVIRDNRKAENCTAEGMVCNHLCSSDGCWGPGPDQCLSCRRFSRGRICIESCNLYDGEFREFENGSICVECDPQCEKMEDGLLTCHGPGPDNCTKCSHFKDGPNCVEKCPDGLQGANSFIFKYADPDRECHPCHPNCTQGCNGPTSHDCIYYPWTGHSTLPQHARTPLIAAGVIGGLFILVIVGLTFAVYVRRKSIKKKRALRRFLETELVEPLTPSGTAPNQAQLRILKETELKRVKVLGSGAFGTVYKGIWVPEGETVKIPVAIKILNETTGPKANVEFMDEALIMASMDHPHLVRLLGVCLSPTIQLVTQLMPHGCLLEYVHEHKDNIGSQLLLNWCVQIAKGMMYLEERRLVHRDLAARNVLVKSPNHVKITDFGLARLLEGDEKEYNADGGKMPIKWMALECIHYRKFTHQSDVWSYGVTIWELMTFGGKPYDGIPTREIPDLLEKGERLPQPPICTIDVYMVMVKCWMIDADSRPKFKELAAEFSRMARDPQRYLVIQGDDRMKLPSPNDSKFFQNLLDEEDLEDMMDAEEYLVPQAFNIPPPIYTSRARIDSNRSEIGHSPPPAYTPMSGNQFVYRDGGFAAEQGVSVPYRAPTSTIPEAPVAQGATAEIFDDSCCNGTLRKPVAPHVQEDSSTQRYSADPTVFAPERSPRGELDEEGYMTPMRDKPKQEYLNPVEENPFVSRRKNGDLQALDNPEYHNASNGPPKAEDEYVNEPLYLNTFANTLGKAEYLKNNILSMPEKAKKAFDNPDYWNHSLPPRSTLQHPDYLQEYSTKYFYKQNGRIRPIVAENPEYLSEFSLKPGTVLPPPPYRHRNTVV
T2 sequence (P42684 whole entry): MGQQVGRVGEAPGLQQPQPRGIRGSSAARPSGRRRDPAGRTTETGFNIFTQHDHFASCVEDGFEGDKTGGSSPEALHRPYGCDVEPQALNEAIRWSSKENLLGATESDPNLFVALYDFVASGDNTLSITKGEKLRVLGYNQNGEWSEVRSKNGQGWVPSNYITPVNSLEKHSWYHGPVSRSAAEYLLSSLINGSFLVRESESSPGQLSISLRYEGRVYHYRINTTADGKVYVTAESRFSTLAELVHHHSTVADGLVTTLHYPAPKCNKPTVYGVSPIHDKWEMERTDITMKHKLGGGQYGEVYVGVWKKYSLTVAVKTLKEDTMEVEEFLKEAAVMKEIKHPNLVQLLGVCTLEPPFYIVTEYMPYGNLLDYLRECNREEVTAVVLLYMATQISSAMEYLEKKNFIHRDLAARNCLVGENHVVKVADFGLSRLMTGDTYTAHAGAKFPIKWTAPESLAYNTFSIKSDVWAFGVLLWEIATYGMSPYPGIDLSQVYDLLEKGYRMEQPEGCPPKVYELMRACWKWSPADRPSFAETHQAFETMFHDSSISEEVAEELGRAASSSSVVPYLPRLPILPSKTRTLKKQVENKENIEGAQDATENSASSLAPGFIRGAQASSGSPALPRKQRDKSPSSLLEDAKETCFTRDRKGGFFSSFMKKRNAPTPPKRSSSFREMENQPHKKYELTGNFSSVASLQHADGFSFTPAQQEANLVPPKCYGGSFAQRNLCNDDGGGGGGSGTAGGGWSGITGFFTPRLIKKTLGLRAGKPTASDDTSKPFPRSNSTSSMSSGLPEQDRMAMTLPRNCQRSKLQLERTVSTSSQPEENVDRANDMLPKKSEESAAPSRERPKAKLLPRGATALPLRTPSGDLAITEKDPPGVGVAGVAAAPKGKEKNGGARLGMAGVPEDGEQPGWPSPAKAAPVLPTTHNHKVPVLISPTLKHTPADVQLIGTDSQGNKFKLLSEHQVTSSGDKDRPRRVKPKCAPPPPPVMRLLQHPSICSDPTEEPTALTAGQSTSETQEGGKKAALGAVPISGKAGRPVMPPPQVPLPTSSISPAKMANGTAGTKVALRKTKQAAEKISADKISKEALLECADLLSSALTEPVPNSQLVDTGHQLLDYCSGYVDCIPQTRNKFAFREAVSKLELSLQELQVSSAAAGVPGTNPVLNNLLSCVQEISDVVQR
Sequence of Epidermal growth factor receptor (Homo sapiens), P00533 [UNDEFINED MUTATION] (P00533 whole entry, looked up, change not shown): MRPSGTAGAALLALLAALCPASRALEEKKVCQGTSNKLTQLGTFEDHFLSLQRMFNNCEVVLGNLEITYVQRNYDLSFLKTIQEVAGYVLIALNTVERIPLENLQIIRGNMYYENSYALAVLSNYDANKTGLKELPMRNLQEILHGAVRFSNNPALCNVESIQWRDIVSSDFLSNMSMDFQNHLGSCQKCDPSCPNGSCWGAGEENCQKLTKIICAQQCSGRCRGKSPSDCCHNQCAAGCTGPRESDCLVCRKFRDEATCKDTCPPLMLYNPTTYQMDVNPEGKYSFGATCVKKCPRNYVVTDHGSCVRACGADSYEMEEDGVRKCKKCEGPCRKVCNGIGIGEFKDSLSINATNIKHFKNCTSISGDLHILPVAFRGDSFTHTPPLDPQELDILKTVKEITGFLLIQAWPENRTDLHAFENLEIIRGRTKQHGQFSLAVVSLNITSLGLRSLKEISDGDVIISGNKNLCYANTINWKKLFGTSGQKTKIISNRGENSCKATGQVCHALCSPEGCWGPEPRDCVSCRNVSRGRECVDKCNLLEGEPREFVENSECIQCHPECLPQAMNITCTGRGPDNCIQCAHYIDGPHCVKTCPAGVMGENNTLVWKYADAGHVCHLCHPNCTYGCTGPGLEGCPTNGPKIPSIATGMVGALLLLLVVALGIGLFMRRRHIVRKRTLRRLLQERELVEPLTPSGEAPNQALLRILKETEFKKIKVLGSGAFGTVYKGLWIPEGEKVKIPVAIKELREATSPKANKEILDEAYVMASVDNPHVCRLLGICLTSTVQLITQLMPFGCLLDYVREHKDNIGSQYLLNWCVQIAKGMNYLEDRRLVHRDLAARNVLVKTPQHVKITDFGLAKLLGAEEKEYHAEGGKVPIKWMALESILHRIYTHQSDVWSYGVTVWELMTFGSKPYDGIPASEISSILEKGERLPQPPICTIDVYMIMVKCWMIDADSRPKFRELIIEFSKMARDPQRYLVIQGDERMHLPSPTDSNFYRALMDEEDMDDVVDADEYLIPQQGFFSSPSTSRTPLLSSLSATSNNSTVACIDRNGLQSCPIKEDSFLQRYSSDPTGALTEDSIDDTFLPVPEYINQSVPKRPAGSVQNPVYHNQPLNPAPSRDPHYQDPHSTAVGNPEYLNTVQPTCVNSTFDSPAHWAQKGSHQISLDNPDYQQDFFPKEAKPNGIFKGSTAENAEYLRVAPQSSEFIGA
Sequence of Calcium/calmodulin-dependent protein kinase type II subunit delta (Homo sapiens) (Q13557 whole entry): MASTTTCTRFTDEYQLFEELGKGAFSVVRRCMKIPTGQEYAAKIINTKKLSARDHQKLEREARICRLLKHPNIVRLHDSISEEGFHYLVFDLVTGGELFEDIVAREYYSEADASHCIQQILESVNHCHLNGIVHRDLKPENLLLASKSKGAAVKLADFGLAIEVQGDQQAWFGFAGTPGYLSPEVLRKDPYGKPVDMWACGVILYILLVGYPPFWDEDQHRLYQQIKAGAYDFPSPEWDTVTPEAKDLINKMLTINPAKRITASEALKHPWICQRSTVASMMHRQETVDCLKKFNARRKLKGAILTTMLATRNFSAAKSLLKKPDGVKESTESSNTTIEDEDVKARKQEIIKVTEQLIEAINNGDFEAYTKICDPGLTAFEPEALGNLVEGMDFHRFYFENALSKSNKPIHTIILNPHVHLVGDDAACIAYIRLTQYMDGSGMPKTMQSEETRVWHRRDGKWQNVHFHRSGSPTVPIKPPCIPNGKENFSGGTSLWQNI
Sequence of Eukaryotic translation initiation factor 2-alpha kinase 1 (Homo sapiens) (Q9BQI3 whole entry): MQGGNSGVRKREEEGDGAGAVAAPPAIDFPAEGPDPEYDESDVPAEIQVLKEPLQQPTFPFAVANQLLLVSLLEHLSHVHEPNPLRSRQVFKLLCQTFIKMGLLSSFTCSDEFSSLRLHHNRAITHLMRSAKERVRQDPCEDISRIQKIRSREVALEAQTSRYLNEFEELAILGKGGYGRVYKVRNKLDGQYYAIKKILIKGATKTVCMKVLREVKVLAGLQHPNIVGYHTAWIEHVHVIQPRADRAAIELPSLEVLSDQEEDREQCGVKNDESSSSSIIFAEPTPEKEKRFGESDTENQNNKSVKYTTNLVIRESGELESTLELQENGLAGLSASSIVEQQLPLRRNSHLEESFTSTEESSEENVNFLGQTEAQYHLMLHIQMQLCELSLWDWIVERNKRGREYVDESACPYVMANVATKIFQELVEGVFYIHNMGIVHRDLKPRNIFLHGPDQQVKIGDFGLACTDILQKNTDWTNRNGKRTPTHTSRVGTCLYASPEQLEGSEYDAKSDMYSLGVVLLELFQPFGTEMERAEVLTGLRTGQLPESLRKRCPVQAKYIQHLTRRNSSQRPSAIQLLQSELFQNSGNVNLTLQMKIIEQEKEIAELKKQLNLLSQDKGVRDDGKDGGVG

For `Cn1cc(-n2cnc3c(NCc4nc5cc(Cl)c(Cl)cc5[nH]4)nc(N4CCOCC4)nc32)cn1`, the % of control in [1] was -1.93%. On to `N#Cc1cccc(-c2c[nH]c3ncnc(N4CCOCC4)c23)c1`, for which the % of control in assay [2] is 79%; in [3], 100%. As for `CNC(=O)Nc1ccc(-c2nc(N3CC4CCC(C3)O4)c3cnn(C4CCC5(CC4)OCCO5)c3n2)cc1`, in assay [4], the % of control was determined as 100%.

Molecule `CC[C@@H]1[C@H](F)C(=O)N[C@@H]1COc1nccc2cc(C(N)=O)c(OC)cc12` [ZIMLOVISERTIB] showed a % of inhibition in [5] of 30.7%. The molecule `CN1Cc2nccc(-c3cn(C)nc3-c3ccc(F)cc3)c2C1=O` came in with a % of inhibition in assay [6] of 8%.

As for `C=CC(=O)Nc1cccc(C(=O)Nc2ccc(Nc3cc(-c4[nH]c(SC)nc4C)ccn3)cc2)c1`, the % of control was determined as 93% in assay [7] (at 1 µM) and 90% in [7] (at 5 µM).

In the case of `CN(C)C/C=C/C(=O)Nc1ccc(C(=O)N2CCCC(Nc3ncc(Cl)c(-c4c[nH]c5ccccc45)n3)C2)cc1` (configuration not stated), the % of control in assay [8] was 84%. `Cc1cc(CN)cc(C)c1-c1ncn(C)c1-c1cncn1C`: the dTagg in assay [9] is -2.2 K. `CC(=O)Nc1cccc(-n2c(=O)n(C3CC3)c(=O)c3c(Nc4ccc(I)cc4F)n(C)c(=O)c(C)c32)c1`: the % of control in assay [10] is 111%; in assay [11], 106%.
